Experimental data reported in patent US11707440B2 (priority 2017, dated 2023).

Test system: patients with treatment-resistant depression (TRD)
Assay: Adverse events, Example 7
Assay type: in vivo, human
Conditions: for Dissociation, number of participants / Dissociative disorder, % of participants / Dissociative disorder, number of participants / Dizziness, % of participants / Dizziness, number of participants / Dysgeusia, % of participants / Dysgeusia, number of participants / Feeling abnormal, % of participants / Feeling abnormal, number of participants / Headache, % of participants / Headache, number of participants / Hypersomnia, % of participants / Hypersomnia, number of participants / Hypertension, number of participants / Hypoesthesia oral, % of participants / Hypoesthesia oral, number of participants / Insomnia, number of participants / Nasal discomfort, number of participants / Nausea, % of participants / Nausea, number of participants / Oropharyngeal pain, number of participants / Polyuria, number of participants / Sedation, % of participants / Sedation, number of participants / Throat irritation, % of participants / Throat irritation, number of participants / Total with events, % of participants / Total with events, number of participants / Tunnel vision, number of participants / Vertigo, % of participants / Vertigo, number of participants / Vision blurred, number of participants / Dissociation, % of participants / Hypertension, % of participants / Insomnia, % of participants / Nasal discomfort, % of participants / Oropharyngeal pain, % of participants / Polyuria, % of participants / Tunnel vision, % of participants / Vision blurred, % of participants: double-blind
Protocol: Adverse events were monitored throughout the study. Other safety assessments (i.e., laboratory tests, vital signs, physical examination) were performed at pre-specified time points. Vital signs, the Clinician Administered Dissociative States Scale (CADSS; Bremner, “Measurement of dissociative states with the clinician-administered dissociative states scale (CADSS)”, J. Traumatic Stress, 1998, 11(1):125-136), and the 4-item positive symptom subscale from the Brief Psychiatric Rating Scale (BPRS; Overall, “The Brief Psychiatric Rating Scale. Psychological Reports”, 1962, 10:799-812) were assessed pre-dose, at 40 minutes, and 2 hours post-dose.
Safety data were analyzed in Period 1, Period 2, double-blind, and open-label data sets, for all subjects receiving at least 1 dose of study medication.

CN[C@]1(c2ccccc2Cl)CCCCC1=O [esketamine, (S)-2-(2-chlorophenyl)-2-(methylamino)cyclohexanone]
Dissociation, number of participants (28 mg): 0 | Dissociative disorder, % of participants (28 mg): 11% | Dissociative disorder, number of participants (28 mg): 2 | Dizziness, % of participants (28 mg): 21% | Dizziness, number of participants (28 mg): 4 | Dysgeusia, % of participants (28 mg): 11% | Dysgeusia, number of participants (28 mg): 2 | Feeling abnormal, % of participants (28 mg): 11% | Feeling abnormal, number of participants (28 mg): 2 | Headache, % of participants (28 mg): 32% | Headache, number of participants (28 mg): 6 | Hypersomnia, % of participants (28 mg): 11% | Hypersomnia, number of participants (28 mg): 2 | Hypertension, number of participants (28 mg): 0 | Hypoesthesia oral, % of participants (28 mg): 5% | Hypoesthesia oral, number of participants (28 mg): 1 | Insomnia, number of participants (28 mg): 0 | Nasal discomfort, number of participants (28 mg): 0 | Nausea, % of participants (28 mg): 11% | Nausea, number of participants (28 mg): 2 | Oropharyngeal pain, number of participants (28 mg): 0 | Polyuria, number of participants (28 mg): 0 | Sedation, % of participants (28 mg): 5% | Sedation, number of participants (28 mg): 1 | Throat irritation, % of participants (28 mg): 5% | Throat irritation, number of participants (28 mg): 1 | Total with events, % of participants (28 mg): 58% | Total with events, number of participants (28 mg): 11 | Tunnel vision, number of participants (28 mg): 0 | Vertigo, % of participants (28 mg): 11% | Vertigo, number of participants (28 mg): 2 | Vision blurred, number of participants (28 mg): 0 | Dissociation, % of participants (56 mg): 35% | Dissociation, number of participants (56 mg): 7 | Dissociative disorder, % of participants (56 mg): 5% | Dissociative disorder, number of participants (56 mg): 1 | Dizziness, % of participants (56 mg): 40% | Dizziness, number of participants (56 mg): 8 | Dysgeusia, % of participants (56 mg): 15% | Dysgeusia, number of participants (56 mg): 3 | Feeling abnormal, % of participants (56 mg): 5% | Feeling abnormal, number of participants (56 mg): 1 | Headache, % of participants (56 mg): 15% | Headache, number of participants (56 mg): 3 | Hypersomnia, number of participants (56 mg): 0 | Hypertension, % of participants (56 mg): 10% | Hypertension, number of participants (56 mg): 2 | Hypoesthesia oral, % of participants (56 mg): 20% | Hypoesthesia oral, number of participants (56 mg): 4 | Insomnia, % of participants (56 mg): 10% | Insomnia, number of participants (56 mg): 2 | Nasal discomfort, % of participants (56 mg): 10% | Nasal discomfort, number of participants (56 mg): 2 | Nausea, % of participants (56 mg): 20% | Nausea, number of participants (56 mg): 4 | Oropharyngeal pain, % of participants (56 mg): 5% | Oropharyngeal pain, number of participants (56 mg): 1 | Polyuria, % of participants (56 mg): 10% | Polyuria, number of participants (56 mg): 2 | Sedation, % of participants (56 mg): 10% | Sedation, number of participants (56 mg): 2 | Throat irritation, number of participants (56 mg): 0 | Total with events, % of participants (56 mg): 80% | Total with events, number of participants (56 mg): 16 | Tunnel vision, number of participants (56 mg): 0 | Vertigo, % of participants (56 mg): 5% | Vertigo, number of participants (56 mg): 1 | Vision blurred, number of participants (56 mg): 0 | Dissociation, % of participants (84 mg): 24% | Dissociation, number of participants (84 mg): 4 | Dissociative disorder, % of participants (84 mg): 24% | Dissociative disorder, number of participants (84 mg): 4 | Dizziness, % of participants (84 mg): 47% | Dizziness, number of participants (84 mg): 8 | Dysgeusia, % of participants (84 mg): 29% | Dysgeusia, number of participants (84 mg): 5 | Feeling abnormal, % of participants (84 mg): 6% | Feeling abnormal, number of participants (84 mg): 1 | Headache, % of participants (84 mg): 18% | Headache, number of participants (84 mg): 3 | Hypersomnia, number of participants (84 mg): 0 | Hypertension, % of participants (84 mg): 6% | Hypertension, number of participants (84 mg): 1 | Hypoesthesia oral, % of participants (84 mg): 12% | Hypoesthesia oral, number of participants (84 mg): 2 | Insomnia, number of participants (84 mg): 0 | Nasal discomfort, % of participants (84 mg): 6% | Nasal discomfort, number of participants (84 mg): 1 | Nausea, % of participants (84 mg): 24% | Nausea, number of participants (84 mg): 4 | Oropharyngeal pain, % of participants (84 mg): 12% | Oropharyngeal pain, number of participants (84 mg): 2 | Polyuria, number of participants (84 mg): 0 | Sedation, % of participants (84 mg): 6% | Sedation, number of participants (84 mg): 1 | Throat irritation, % of participants (84 mg): 12% | Throat irritation, number of participants (84 mg): 2 | Total with events, % of participants (84 mg): 88% | Total with events, number of participants (84 mg): 15 | Tunnel vision, % of participants (84 mg): 12% | Tunnel vision, number of participants (84 mg): 2 | Vertigo, % of participants (84 mg): 6% | Vertigo, number of participants (84 mg): 1 | Vision blurred, % of participants (84 mg): 12% | Vision blurred, number of participants (84 mg): 2 | Dissociation, % of participants (Total esketamine): 20% | Dissociation, number of participants (Total esketamine): 11 | Dissociative disorder, % of participants (Total esketamine): 13% | Dissociative disorder, number of participants (Total esketamine): 7 | Dizziness, % of participants (Total esketamine): 36% | Dizziness, number of participants (Total esketamine): 20 | Dysgeusia, % of participants (Total esketamine): 18% | Dysgeusia, number of participants (Total esketamine): 10 | Feeling abnormal, % of participants (Total esketamine): 7% | Feeling abnormal, number of participants (Total esketamine): 4 | Headache, % of participants (Total esketamine): 21% | Headache, number of participants (Total esketamine): 12 | Hypersomnia, % of participants (Total esketamine): 4% | Hypersomnia, number of participants (Total esketamine): 2 | Hypertension, % of participants (Total esketamine): 5% | Hypertension, number of participants (Total esketamine): 3 | Hypoesthesia oral, % of participants (Total esketamine): 13% | Hypoesthesia oral, number of participants (Total esketamine): 7 | Insomnia, % of participants (Total esketamine): 4% | Insomnia, number of participants (Total esketamine): 2 | Nasal discomfort, % of participants (Total esketamine): 5% | Nasal discomfort, number of participants (Total esketamine): 3 | Nausea, % of participants (Total esketamine): 18% | Nausea, number of participants (Total esketamine): 10 | Oropharyngeal pain, % of participants (Total esketamine): 5% | Oropharyngeal pain, number of participants (Total esketamine): 3 | Polyuria, % of participants (Total esketamine): 4% | Polyuria, number of participants (Total esketamine): 2 | Sedation, % of participants (Total esketamine): 7% | Sedation, number of participants (Total esketamine): 4 | Throat irritation, % of participants (Total esketamine): 5% | Throat irritation, number of participants (Total esketamine): 3 | Total with events, % of participants (Total esketamine): 75% | Total with events, number of participants (Total esketamine): 42 | Tunnel vision, % of participants (Total esketamine): 4% | Tunnel vision, number of participants (Total esketamine): 2 | Vertigo, % of participants (Total esketamine): 7% | Vertigo, number of participants (Total esketamine): 4 | Vision blurred, % of participants (Total esketamine): 4% | Vision blurred, number of participants (Total esketamine): 2 | Participants with adverse events leading to discontinuation of study drug (double-blind phase): 5% | Adverse event dizziness (open-label phase): 38.6% | Adverse event dysgeusia (open-label phase): 22.8% | Adverse event headache (open-label phase): 14.0% | Adverse event nausea (open-label phase): 15.8% | Adverse event sedation (open-label phase): 10.5% | Participants reporting transient dissociative symptoms (open-label phase): 24.6% | Participants with adverse events leading to discontinuation of study drug (open-label phase): 2%
